{"source": "PubChem BioAssay AID2060625", "about": "(Molecular Pharmacology Branch, DTP, NCI, 2025)", "test_system": "186277-243-T-J2-PDC spheroids with HUVEC/MSC, viability", "test": "Anticancer human tumor 186277-243-T-J2-PDC patient-derived colon adenocarcinoma cell line growth inhibition [CLK]", "conditions": "for viability, T/C: stronger effect = lower value", "in_short": "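Multi-cell-type spheroids combined patient-derived tumor cells with HUVEC endothelial cells and human mesenchymal stem cells. Paired agents were dosed in half-log steps down from about clinical Cmax, or from 10 microM where Cmax was unknown.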", "note": "Where “and” joins values, the source holds several entries; their conditions need not be identical. Equal entries are not always repeated.", "data": [{"compound": "C=C(F)C(=O)N1CCN(c2nc(OCC3CCCN3C)nc3c2CCN(c2cccc4cccc(Cl)c24)C3)CC1CC#N", "note": "(centres undefined) + CN1CCN(c2cc(C(=O)Nc3cc4cc(-c5cnn(C)c5)ccc4cn3)ccn2)CC1;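 note: compound exposure lasted seven days before readout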;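 for viability, T/C: 100% = DMSO vehicle control wells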", "values": [{"measurement": "IC50", "setting": "curve of first compound, second compound 0.0316 µM", "value": 6630, "unit": "nM"}, {"measurement": "IC50", "setting": "curve of first compound, second compound 0.1 µM", "value": 5050, "unit": "nM"}, {"measurement": "IC50", "setting": "curve of first compound, second compound 0.316 µM", "value": "< 31.6", "unit": "nM"}, {"measurement": "IC50", "setting": "curve of first compound, second compound 1 µM", "value": "< 31.6", "unit": "nM"}, {"measurement": "IC50", "setting": "curve of first compound, second compound 3.16 µM", "value": "< 31.6", "unit": "nM"}, {"measurement": "IC50", "setting": "curve of first compound, second compound 10 µM", "value": "< 31.6", "unit": "nM"}, {"measurement": "viability, T/C", "setting": "second compound 0.0316 µM, first compound 0.0316 µM", "value": 84.2, "unit": "%"}, {"measurement": "viability, T/C", "setting": "second compound 0.0316 µM, first compound 0.1 µM", "value": 78.5, "unit": "%"}, {"measurement": "viability, T/C", "setting": "second compound 0.0316 µM, first compound 0.316 µM", "value": 115, "unit": "%"}, {"measurement": "viability, T/C", "setting": "second compound 0.0316 µM, first compound 1 µM", "value": 90.6, "unit": "%"}, {"measurement": "viability, T/C", "setting": "second compound 0.0316 µM, first compound 3.16 µM", "value": 106, "unit": "%"}, {"measurement": "viability, T/C", "setting": "second compound 0.0316 µM, first compound 10 µM", "value": 24.9, "unit": "%"}, {"measurement": "viability, T/C", "setting": "second compound 0.1 µM, first compound 0.0316 µM", "value": 82.7, "unit": "%"}, {"measurement": "viability, T/C", "setting": "second compound 0.1 µM, first compound 0.1 µM", "value": 76.7, "unit": "%"}, {"measurement": "viability, T/C", "setting": "second compound 0.1 µM, first compound 0.316 µM", "value": 81.4, "unit": "%"}, {"measurement": "viability, T/C", "setting": "second compound 0.1 µM, first compound 1 µM", "value": 95.8, "unit": "%"}, {"measurement": "viability, T/C", "setting": "second compound 0.1 µM, first compound 3.16 µM", "value": 83.5, "unit": "%"}, {"measurement": "viability, T/C", "setting": "second compound 0.1 µM, first compound 10 µM", "value": 1.11, "unit": "%"}, {"measurement": "viability, T/C", "setting": "second compound 0.316 µM, first compound 0.0316 µM", "value": 25.1, "unit": "%"}, {"measurement": "viability, T/C", "setting": "second compound 0.316 µM, first compound 0.1 µM", "value": 27.1, "unit": "%"}, {"measurement": "viability, T/C", "setting": "second compound 0.316 µM, first compound 0.316 µM", "value": 30, "unit": "%"}, {"measurement": "viability, T/C", "setting": "second compound 0.316 µM, first compound 1 µM", "value": 35, "unit": "%"}, {"measurement": "viability, T/C", "setting": "second compound 0.316 µM, first compound 3.16 µM", "value": 32, "unit": "%"}, {"measurement": "viability, T/C", "setting": "second compound 0.316 µM, first compound 10 µM", "value": 1.64, "unit": "%"}, {"measurement": "viability, T/C", "setting": "second compound 1 µM, first compound 0.0316 µM", "value": 1.65, "unit": "%"}, {"measurement": "viability, T/C", "setting": "second compound 1 µM, first compound 0.1 µM", "value": 0.34, "unit": "%"}, {"measurement": "viability, T/C", "setting": "second compound 1 µM, first compound 0.316 µM", "value": 1.16, "unit": "%"}, {"measurement": "viability, T/C", "setting": "second compound 1 µM, first compound 1 µM", "value": 0.32, "unit": "%"}, {"measurement": "viability, T/C", "setting": "second compound 1 µM, first compound 3.16 µM", "value": 0.22, "unit": "%"}, {"measurement": "viability, T/C", "setting": "second compound 1 µM, first compound 10 µM", "value": 2.22, "unit": "%"}, {"measurement": "viability, T/C", "setting": "second compound 3.16 µM, first compound 0.0316 µM", "value": 1.31, "unit": "%"}, {"measurement": "viability, T/C", "setting": "second compound 3.16 µM, first compound 0.1 µM", "value": 1.53, "unit": "%"}, {"measurement": "viability, T/C", "setting": "second compound 3.16 µM, first compound 0.316 µM", "value": 1.42, "unit": "%"}, {"measurement": "viability, T/C", "setting": "second compound 3.16 µM, first compound 1 µM", "value": 1.35, "unit": "%"}, {"measurement": "viability, T/C", "setting": "second compound 3.16 µM, first compound 3.16 µM", "value": 1.01, "unit": "%"}, {"measurement": "viability, T/C", "setting": "second compound 3.16 µM, first compound 10 µM", "value": 1.05, "unit": "%"}, {"measurement": "viability, T/C", "setting": "second compound 10 µM, first compound 0.0316 µM", "value": 0.68, "unit": "%"}, {"measurement": "viability, T/C", "setting": "second compound 10 µM, first compound 0.1 µM", "value": 1, "unit": "%"}, {"measurement": "viability, T/C", "setting": "second compound 10 µM, first compound 0.316 µM", "value": 1.19, "unit": "%"}, {"measurement": "viability, T/C", "setting": "second compound 10 µM, first compound 1 µM", "value": 0.79, "unit": "%"}, {"measurement": "viability, T/C", "setting": "second compound 10 µM, first compound 3.16 µM", "value": 1.52, "unit": "%"}, {"measurement": "viability, T/C", "setting": "second compound 10 µM, first compound 10 µM", "value": 0.2, "unit": "%"}]}, {"compound": "C=CC(=O)Nc1cc(Nc2nccc(-c3cn(C)c4ccccc34)n2)c(OC)cc1N(C)CCN(C)C", "values": [{"measurement": "viability, T/C", "setting": "compound 0.000949 µM", "value": "84.2% and 100%"}, {"measurement": "viability, T/C", "setting": "compound 0.003 µM", "value": "98.2% and 101%"}, {"measurement": "viability, T/C", "setting": "compound 0.00949 µM", "value": "84.3% and 112%"}, {"measurement": "viability, T/C", "setting": "compound 0.03 µM", "value": "82.3% and 97.6%"}, {"measurement": "viability, T/C", "setting": "compound 0.0949 µM", "value": "83.6% and 116%"}, {"measurement": "viability, T/C", "setting": "compound 0.3 µM", "value": "87.2% and 95.1%"}, {"measurement": "IC50", "setting": "curve of compound", "value": "> 300", "unit": "nM"}]}]}
